These are literature values, as cited in patent US20050182026A1, “Use of phospholipids in peritoneal dialysis” (priority 2002, published 2005).

The subject of series [1] is respiratory distress syndrome. As to conditions: various physical forms, used for two decades in newborns.

As to `CCCCCCCCCCCCCCCC(=O)OC[C@H](COP(=O)([O-])OCC[N+](C)(C)C)OC(=O)CCCCCCCCCCCCCCC` [DPPC, dipalmitoylphosphatidylcholine], the solubility in water entry is “highly insoluble in water”. Also, the “safety in clinical use” value in series [1] is recorded as “complete safety”. Moreover, under “in water”, the critical micelle concentration is 5×10^−10 Molar.
